Data as given in ChEMBL document CHEMBL3272224, “Synthesis and hypotensive activity of N-alkyl-N"-cyano-N'-pyridylguanidines” (J Med Chem, 1978).

How the values were obtained:
[1] = Toxicity in po dosed mouse assessed as mortality after 7 days; settings: in vivo
[2] = test system: Rattus norvegicus; test: Hypotensive activity in po dosed spontaneously hypertensive Wistar-Okamoto rat assessed as dose required to cause 30 mmHg fall of blood pressure administered for 5 days; type: functional; settings: 120 h, read-out: MED

Row | SMILES | LD50 at 168 h [1] [mg/kg] | minimal effective dose [2] [mg/kg]
1 | C/N=C(\NC#N)Nc1cccnc1 | > 1000 | > 50
2 | CC(C)(C)N/C(=N\C#N)Nc1c(Cl)cccc1Cl | > 1000 | > 50
3 | N#CN/C(=N\C1CC1)Nc1cccnc1 | > 1000 | 20
4 | CC(C)/N=C(\NC#N)Nc1cccnc1 | > 1000 | 2.5
5 | CCCCCCC/N=C(\NC#N)Nc1cccnc1 | > 1000 | > 50
6 | CCC(CC)/N=C(\NC#N)Nc1ccncc1 | 200 | 2.5
7 | CCC(CC)/N=C(\NC#N)Nc1cccnc1 | 600 | 20
8 | CCC(CC)(CC)/N=C(\NC#N)Nc1cccnc1 | > 1000 | 1
9 | CC(C)(C)C/N=C(\NC#N)Nc1ccncc1 | 600 | 5
10 | CCOCC/N=C(\NC#N)Nc1cccnc1 | 600 | > 20
11 | CCCN(CCC)S(=O)(=O)/N=C(/Nc1cccnc1)NC(C)(C)CC | > 1000 | > 50
12 | CCC(C)(C)/N=C(\NC#N)Nc1ccncc1 | 600 | 2.5
13 | CCC(C)(C)N/C(=N\S(=O)(=O)c1ccc(C)cc1)Nc1cccnc1 | > 1000 | > 50
14 | N#CN/C(=N\CCc1ccccc1)Nc1ccncc1 | > 1000 | 20
15 | N#CN/C(=N\C1CCCCCCC1)Nc1ccncc1 | 600 | > 20
16 | CC(C)(C)C(C)(C)/N=C(\NC#N)Nc1ccncc1 | > 1000 | 20
17 | CC(C)(C)CC(C)(C)/N=C(\NC#N)Nc1ccncc1 | > 1000 | 50
18 | CCC(C)(C)N/C(=N\C#N)Nc1cc(-c2ccc(Cl)cc2)nn1C | > 1000 | 50
19 | CC(C)C(=O)N(/C(=N\C#N)Nc1cccnc1)C(C)(C)C | > 1000 | 10
20 | CCC(C)(C)N/C(=N\C#N)Nc1cc(C)nc2ccccc12 | > 1000 | 10
21 | CCC(C)C(C)/N=C(\NC#N)Nc1ccncc1 (configuration not stated) | 250 | 8
22 | CCC(C)(C)N/C(=N\C#N)Nc1ccc[n+](C)c1.[I-] | > 1000 | 20
23 | CCOc1ccccc1N/C(=N/C#N)NC(C)(C)CC | > 1000 | 20
24 | CCC(C)(C)N/C(=N\C#N)Nc1ccc(N(C)C)cc1 | > 1000 | > 50
25 | N#CN/C(=N\c1ccccc1)Nc1cccnc1 | > 1000 | 5
26 | CCC(C)(C)N/C(=N\O)Nc1cccnc1 | 600 | > 20

Row | SMILES | LD50 at 168 h [1] [mg/kg] | minimal effective dose [2] [mg/kg]
27 | CN(C)c1ccc(N/C(=N/C#N)NC(C)(C)C)cc1 | > 1000 | > 50
28 | CC1(/N=C(\NC#N)Nc2cccnc2)CCC1 | > 1000 | 50
29 | CC(C)(C)N/C(=N\C#N)NCCc1ccccn1 | 800 | 25
30 | N#CN/C(=N\C1CCCC1)Nc1cccnc1 | 1000 | 20
31 | CCCCC/N=C(\NC#N)Nc1cccnc1 | > 1000 | 20
32 | CCC(CC)N/C(=N\O)Nc1cccnc1 | > 1000 | 50
33 | Cc1nn(C)c(N/C(=N/C#N)NC(C)(C)C)c1Cl | > 1000 | 20
34 | CCC(C)(C)N/C(=N\C#N)Nc1c(C)cccc1C | > 1000 | 50
35 | Cc1noc(C)c1N/C(=N/C#N)NC(C)C(C)(C)C (configuration not stated) | > 1000 | 20
36 | CCCCC(CC)C/N=C(\NC#N)Nc1cccnc1 (configuration not stated) | > 1000 | > 50
37 | CC(C)CCCC(C)N/C(=N\C#N)Nc1ccncc1 (configuration not stated) | > 1000 | 50
38 | CCCC(C)(C)/N=C(\NC#N)Nc1cccnc1 | > 1000 | 1
39 | Cn1nc(-c2ccc(Cl)cc2)cc1N/C(=N/C#N)NC(C)(C)C | > 1000 | > 50
40 | CC(C)C/N=C(\NC#N)Nc1cccnc1 | > 1000 | 20
41 | COc1ccc(N/C(=N/C(C)(C)C)NC#N)cn1 | 400 | 15
42 | CC(C)C(/N=C(\NC#N)Nc1ccncc1)C(C)C | 250 | 8
43 | CCC(C)(C)N/C(=N\C#N)Nc1ccccc1 | > 1000 | 50
44 | CC(C)(C)/N=C(\NC#N)Nc1cccnc1Cl | > 1000 | 5
45 | N#CN/C(=N\C1CCCCC1)Nc1ccncc1 | 600 | 20
46 | CC(C)C(C)(C)/N=C(\NC#N)Nc1ccncc1 | 1000 | 20
47 | Cc1cc(C)nc(N/C(=N/C(C)(C)C)NC#N)c1 | > 1000 | > 50
48 | CC(C)(C)/N=C(\NC#N)Nc1ccc(Cl)nc1Cl | > 1000 | > 50
49 | CN1CCN(/C(=N/C#N)NC(C)(C)C)CC1 | > 1000 | > 50
50 | CC(C)C(/N=C(\NC#N)Nc1cccnc1)C(C)C | > 1000 | 5
51 | CC(C)(C)/N=C(\NC#N)Nc1ccc(Cl)cn1 | 800 | 25
52 | CC(C)C(C)(C)/N=C(\NC#N)Nc1cccnc1 | > 1000 | 1

Row | SMILES | LD50 at 168 h [1] [mg/kg] | minimal effective dose [2] [mg/kg]
53 | CC(C)(C)/N=C(\NC#N)Nc1ccccn1 | 600 | > 20
54 | CCC(C)(C)/N=C(\NC#N)Nc1c(C)cc(C)nc1C | 800 | > 25
55 | CC(/N=C(\NC#N)Nc1ccncc1)C1CC1 (configuration not stated) | 200 | 3
56 | N#CN/C(=N\C1CCCCC1)Nc1ccccn1 | 1000 | > 35
57 | N#CN/C(=N\Cc1ccccc1)Nc1cccnc1 | > 1000 | 20
58 | N#CN/C(=N\Cc1ccccc1)Nc1ccncc1 | 600 | 5
59 | Cc1nn(C)c(C)c1N/C(=N/C#N)NC(C)(C)C | > 1000 | 5
60 | N#CNC(=N)Nc1cccnc1 | > 1000 | 50
61 | CC(/N=C(\NC#N)Nc1ccncc1)c1ccccc1 (configuration not stated) | 600 | 10
62 | CC(C)(C)N/C(=N\C#N)NCc1cccnc1 | > 1000 | 2.5
63 | CCC(C)(C)N/C(=N\C#N)Nc1ccc[n+]([O-])c1 | > 1000 | 20
64 | N#CN/C(=N\Cc1ccco1)Nc1cccnc1 | > 1000 | 20
65 | CC(C)CC/N=C(\NC#N)Nc1cccnc1 | > 1000 | 20
66 | N#CN/C(=N\C1CCCCC1)Nc1cccnc1 | > 1000 | 20
67 | CC(C)(N/C(=N\C#N)Nc1ccncc1)c1ccccc1 | > 1000 | > 50
68 | CC(C)(C)N/C(=N\C#N)NCc1ccccn1 | 600 | > 20
69 | C=C(C)C/N=C(\NC#N)Nc1cccnc1 | 1000 | 20
70 | CC(C)(C)N/C(=N\C#N)Nc1ccc(O)cc1 | > 1000 | > 50
71 | CCC(C)(C)N/C(N)=N/C#N [GUANCYDINE] | 800 | 15
72 | CC(NC(=NC#N)Nc1ccccc1)C(C)(C)C (configuration not stated) | > 1000 | > 50
73 | CCC(C)(C)N/C(=N\C#N)NCCCN(C)C | > 1000 | 25
74 | CC(N/C(=N\C#N)NCc1ccncc1)C(C)(C)C (configuration not stated) | > 1000 | 20
75 | N#C/N=C(/Nc1cccnc1)NC12CC3CC(CC(C3)C1)C2 | > 1000 | 50
76 | Cc1cc(C)c(/N=C(\NC#N)NC(C)(C)C)c(C)n1 | > 1000 | > 50
